Measurements from US20250066816A1, “ELECTROPORATION ENHANCERS FOR CRISPR-CAS SYSTEMS” (SIGMA-ALDRICH CO. LLC, priority 2021, published 2025).

Tested on: human HEK293 cells
Assay: High fidelity SpCas9 RNP nucleofection, HEKSite4 target site, HEK293 cells, editing frequency by NGS
Type: cell-based
Details: at least one of the three dosages tested (Table 10), FIG. 6
Method: A high fidelity SpCas9 protein (Catalog No. CAS9 Plus) and a synthetic single guide RNA (sgRNA) with the spacer sequence of 5′-[…]-3′ (SEQ ID NO: 46) targeting the human HEKSite4 locus were purchased from MilliporeSigma. Pentosan polysulfate sodium salt with a formula of (C5H6Na2O10S2)n was purchased from Selleckchem (Catalog No. S3500). A pentosan polysulfate solution was prepared by dissolving the chemical in water at 50 mg/ml. The molecular structural unit of the polyanionic polymer is as follows: […]
Genomic DNA extracts from transfected cells were prepared using QuickExtract Solution. Targeted genomic region was PCR amplified with NGS primers using JumpStart™ Taq ReadyMix™ for Quantitative PCR Kit (MilliporeSigma) with the following cycling condition: 98° C./2 m; 98° C./15 s, 62° C./30 s, and 72° C./45 s for 34 cycles; 72° C./5 m.
Primary PCR products were then reamplified with Illumina index primers using JumpStart™ Taq ReadyMix™ for Quantitative PCR Kit (MilliporeSigma) with the following cycling condition: 95° C./3 m; 95° C./30 s, 55° C./30 s, and 72° C./30 s for 8 cycles; 72° C./5 m. Indexed PCR products were purified with Select-a-Size DNA Clean & Concentrator kit (Zymo) and quantified by PicoGreen (ThermoFisher). […] The FASTQ files for each sample were analyzed for genome editing frequency. […]

Substance: Collagen from rat tail
- level of editing efficiency versus the control buffer: significantly higher
